Measurements published in US12559529B2, “NPY2 receptor agonists” (Boehringer Ingelheim International GmbH, priority 2019, dated 2026).

Columns and labels:
normal NMRI mice = assay: Effect on acute food intake in normal NMRI mice; assay type: in vivo; settings: male NMRI mice, 10 nmol/kg subcutaneously once
How it was run: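 A single 10 nmol/kg s.c. peptide dose was given 1 h before lights-off to male NMRI mice fasted from 6 h before the night phase (n=7-8). Intake was recorded continuously by microchip-identified HM-2 feeding channels. Values are normalized to vehicle controls (50 mM phosphate buffer pH7 with 5% Mannitol).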

[1] = molecular target: T1, Human Neuropeptide Y2 Receptor (Homo sapiens, UniProt P49146); assay: Radioligand binding competition assay (RLB); settings: Table 3; human 125I-PYY (1-36) 0.02 nM, Y2 receptor membranes; read-out: Ki
T1 construct: purchased CHEMICON HTS066M
T1 sequence (P49146 1-381): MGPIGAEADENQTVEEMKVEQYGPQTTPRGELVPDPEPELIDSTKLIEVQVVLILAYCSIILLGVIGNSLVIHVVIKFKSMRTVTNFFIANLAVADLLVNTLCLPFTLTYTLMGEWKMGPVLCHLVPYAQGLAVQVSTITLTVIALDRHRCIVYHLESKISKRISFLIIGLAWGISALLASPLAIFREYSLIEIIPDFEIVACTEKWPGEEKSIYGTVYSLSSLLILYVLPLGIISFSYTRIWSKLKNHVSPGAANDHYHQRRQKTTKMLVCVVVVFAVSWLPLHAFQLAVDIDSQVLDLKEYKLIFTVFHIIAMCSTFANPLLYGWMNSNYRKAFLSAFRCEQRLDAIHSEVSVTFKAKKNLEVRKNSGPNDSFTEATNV
How it was run: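 Competition binding at commercial human NPY Y2 membrane preparations, 0.5 μg protein per well, 2 h incubation at room temperature. Bound and free ligand were separated on GF/C filters and counted; IC50 was fitted by nonlinear regression.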

## CC(C)CC(=O)N[C@@H](C)C(=O)N1CCC[C@H]1C(=O)N[C@@H](C)C(=O)N[C@@H](CCCCNC(=O)COCCOCCNC(=O)COCCOCCNC(=O)CC[C@H](NC(=O)CCCCCCCCCCCCCCCCC(=O)O)C(=O)O)C(=O)N1CCC[C@H]1C(=O)N[C@@H](CCC(=O)O)C(=O)N[C@@H](CCC(=O)O)C(=O)N[C@@H](CC(=O)O)C(=O)N[C@@H](C)C(=O)N[C@@H](CO)C(=O)N1CCC[C@H]1C(=O)N[C@@H](CCC(=O)O)C(=O)N[C@@H](CCC(=O)O)C(=O)N[C@@H](CC(C)C)C(=O)N[C@@H](CCC(N)=O)C(=O)N[C@@H](CCCNC(=N)N)C(=O)N[C@@H](Cc1ccc(O)cc1)C(=O)N[C@@H](Cc1ccc(O)cc1)C(=O)N[C@H](C(=O)N[C@@H](CCC(=O)O)C(=O)N[C@@H](CC(C)C)C(=O)N[C@@H](CCCNC(=N)N)C(=O)N[C@@H](Cc1c[nH]cn1)C(=O)N[C@@H](Cc1ccc(O)cc1)C(=O)N[C@@H](Cc1ccc(O)cc1)C(=O)N[C@@H](CC(N)=O)C(=O)N[C@@H](Cc1c[nH]c2ccccc12)C(=O)N[C@@H](CC(C)C)C(=O)N[C@H](C(=O)N[C@@H](CCCNC(=N)N)C(=O)N[C@@H](CCC(N)=O)C(=O)N[C@@H](CCCNC(=N)N)C(=O)N[C@@H](Cc1ccc(O)cc1)C(N)=O)[C@@H](C)O)C(C)C [Compound 173, N{alpha-4}-(3-methylbutanoyl)-N{epsilon-7}-[2-(2-{2-[2-(2-{2-[(4S)-4-carboxy-4-(17-carboxyheptadecanamido)butanamido]ethoxy}ethoxy)acetamido]ethoxy}ethoxy)acetamido]-[4A,6A,7K,9E,18Q,22V,23E,28Y,30W,31L]hPYY (4-36)]
Normal NMRI mice
  Acute Food Intake 24 h [% vehicle]: 49 % vehicle
[1]
  Ki: 1.71 nM

## CC(C)CC(=O)N[C@@H](C)C(=O)N1CCC[C@H]1C(=O)N[C@@H](C)C(=O)N[C@@H](CCCCNC(=O)COCCOCCNC(=O)COCCOCCNC(=O)CC[C@H](NC(=O)CCCCCCCCCCCCCCCCC(=O)O)C(=O)O)C(=O)N1CCC[C@H]1C(=O)N[C@@H](CCC(=O)O)C(=O)N[C@@H](CCC(=O)O)C(=O)N[C@@H](CC(=O)O)C(=O)N[C@@H](C)C(=O)N[C@@H](CCC(=O)O)C(=O)N1CCC[C@H]1C(=O)N[C@@H](CCC(=O)O)C(=O)N[C@@H](CCC(=O)O)C(=O)N[C@@H](CC(C)C)C(=O)N[C@@H](CCC(N)=O)C(=O)N[C@@H](CCCNC(=N)N)C(=O)N[C@@H](Cc1ccc(O)cc1)C(=O)N[C@@H](Cc1ccc(O)cc1)C(=O)N[C@H](C(=O)N[C@@H](CO)C(=O)N[C@@H](CC(C)C)C(=O)N[C@@H](CCCNC(=N)N)C(=O)N[C@@H](Cc1c[nH]cn1)C(=O)N[C@@H](Cc1ccc(O)cc1)C(=O)N[C@@H](Cc1ccc(O)cc1)C(=O)N[C@@H](CC(N)=O)C(=O)N[C@@H](Cc1c[nH]c2ccccc12)C(=O)N[C@@H](CC(C)C)C(=O)N[C@H](C(=O)N[C@@H](CCCNC(=N)N)C(=O)N[C@@H](CCC(N)=O)C(=O)N[C@@H](CCCNC(=N)N)C(=O)N[C@@H](Cc1ccc(O)cc1)C(N)=O)[C@@H](C)O)C(C)C [Compound 174, N{alpha-4}-(3-methylbutanoyl)-N{epsilon-7}-[2-(2-{2-[2-(2-{2-[(4S)-4-carboxy-4-(17-carboxyheptadecanamido)butanamido]ethoxy}ethoxy)acetamido]ethoxy}ethoxy)acetamido]-[4A,6A,7K,9E,13E,18Q,22V,28Y,30W,31L]hPYY (4-36)]
Normal NMRI mice
  Acute Food Intake 24 h [% vehicle]: 41 % vehicle
[1]
  Ki: 3.89 nM
